According to US20040209906A1, “Composition comprising ketanserin AND AN ALKANOYL L-CARNITINE FOR THE TREATMENT OF CRPS” (Sigma-Tau industrie Farmaceutiche Riunite S.p.A., priority 1998, published 2004):

Tests used:
CRPS [1] = conditions: in vivo; cited from earlier work
CRPS [2] = conditions: ketanserin alone; cited from earlier work
CRPS patients = test: intravenous ketanserin treatment of CRPS patients (bolus plus infusion); type: in vivo
Method: All i.v. treatments were performed after at least 15 minutes of acclimatisation at constant temperature (20-23° C.). The temperature of the affected limb was recorded with Hewlett Packard electro-skin probe between digit 4 and 5. In addition continues photoplethysmograpy of the affected hand (digit 2) or foot (digit 1), blood pressure and hearth rate were recorded. All patients received a bolus of 10 mg of ketanserin i.v. in a running saline infusion. Ketanserin administration was continued by rate of 4 mg per hour.

[3] = after the intravenous treatment with ketanserin

| Structure (SMILES) | efficacy of therapeutic treatment in CRPS (CRPS [1]) | therapeutic result for symptoms caused by hyperpathia and allodinia (CRPS [1]) | treatment of CRPS symptoms (CRPS [2]) | skin temperature (CRPS patients; [3]) | symptom of small vein (CRPS patients; [3]) | peripheral circulation of the affected limb (CRPS patients; all patients, after the intravenous treatment with ketanserin (10 mg bolus, then 4 mg per hour)) |
| --- | --- | --- | --- | --- | --- | --- |
| C[S+](C)[O-] [dimethyl sulfoxide] | efficacious only during acute CRPS | without any therapeutic result | – | – | – | – |
| O=C(c1ccc(F)cc1)C1CCN(CCn2c(=O)[nH]c3ccccc3c2=O)CC1 [ketanserin] | – | – | possible to treat most of symptoms, but not those caused by hyperpathia and allodinia | normalised | disappeared | normalised |
